# Peptide text beside a SMILES is read from it.
# Columns and labels:
# animal models of HP = conditions: cited from earlier work
# [1] = Plasma pharmacokinetics, single ascending dose (Part A); format: in vivo, human; conditions: for AUC(0–∞) / Cmax / Tmax: Part A SAD; for Cmax: immunoaffinity LC-MS/MS, mean ± SD
# Protocol: Seven sequential cohorts were included in Part A. The first cohort was single-blind and included four subjects, of which three subjects were randomized to receive 5 μg eneboparatide and one subject was randomized to receive placebo. […] Subjects in Part A were admitted to the phase 1 study centre on day 1 and received the study drug at the clinical site on day 1 as a single, subcutaneous abdominal injection in the morning. They were discharged on day 4 and were asked to return for a follow-up (FU) visit on day 5–8.
# Plasma samples were collected pre-dose and at scheduled time points up to 6 h post-dose on day 1 (Parts A and B) and day 14 (Part B). The analysis of eneboparatide in plasma samples was performed at QPS (The Netherlands) using a hybrid immunoaffinity liquid chromatography–mass spectrometry/mass spectrometry (LC-MS/MS) method, with a validated lower limit of quantification (LLOQ) of 50 pg/mL.
smiles,measurement,setting,value
CC[C@H](C)[C@H](NC(=O)[C@H](CCC(=O)O)NC(=O)[C@H](C)NC(=O)[C@@H](NC(=O)[C@H](Cc1c[nH]cn1)NC(=O)[C@@H](NC(=O)[C@H](CCC(=O)O)NC(=O)[C@H](C)NC(=O)[C@@H](NC(=O)[C@H](CC(C)C)NC(=O)[C@H](CCCCN)NC(=O)[C@H](Cc1c[nH]cn1)NC(=O)[C@H](CC(C)C)NC(=O)[C@H](Cc1ccccc1)NC(=O)[C@H](C)NC(=O)[C@H](CCCNC(=N)N)NC(=O)[C@H](CCCNC(=N)N)NC(=O)[C@H](CCCNC(=N)N)NC(=O)[C@H](C)NC(=O)[C@H](CC(=O)O)NC(=O)[C@H](CCC(N)=O)NC(=O)[C@@H](NC(=O)[C@H](Cc1c[nH]c2ccccc12)NC(=O)[C@H](CCCCN)NC(=O)[C@H](C)NC(=O)[C@H](CCCNC(=N)N)NC(=O)[C@H](CCC(N)=O)NC(=O)[C@H](Cc1c[nH]cn1)NC(=O)[C@H](CCSC)NC(=O)[C@H](CC(C)C)NC(=O)[C@H](CCC(N)=O)NC(=O)[C@@H](NC(=O)[C@H](CCC(=O)O)NC(=O)[C@H](C)NC(=O)[C@@H](NC(=O)[C@H](C)N)C(C)C)[C@@H](C)CC)[C@@H](C)CC)[C@@H](C)CC)[C@@H](C)CC)[C@@H](C)O)C(=O)O [eneboparatide] (H-AVAEIQLMHQRAKWIQDARRRAFLHKLIAEIHTAEI-OH; N-terminus and C-terminus assumed),"serum calcium, urinary calcium excretion and bone resorption biomarkers",animal models of HP,robust and sustained increases in serum calcium without increasing urinary calcium excretion or bone resorption biomarkers
same,AUC(0–∞),"[1]; single sc 5 μg, n = 2, mean ± SD",0.399 ± 0.032 ng·h/mL
same,Cmax,"[1]; single sc 5 μg, n = 2, plasma",6.82 ± 2.19 ng/mL
same,AUC(0–∞),"[1]; single sc 10 μg, n = 4, mean ± SD",5.20 ± 3.38 ng·h/mL
same,Cmax,"[1]; single sc 10 μg, n = 4, plasma",11.4 ± 4.32 ng/mL
same,AUC(0–∞),"[1]; single sc 20 μg, n = 6, mean ± SD",9.55 ± 4.12 ng·h/mL
same,Cmax,"[1]; single sc 20 μg, n = 6, plasma",24.1 ± 8.18 ng/mL
same,AUC(0–∞),"[1]; single sc 40 μg, n = 2, mean ± SD",10.4 ± 13.4 (n = 2) ng·h/mL
same,Cmax,"[1]; single sc 40 μg, n = 3, plasma",26.3 ± 4.79 ng/mL
same,AUC(0–∞),"[1]; single sc 60 μg, n = 6, mean ± SD",16.8 ± 14.7 ng·h/mL
same,Cmax,"[1]; single sc 60 μg, n = 6, plasma",28.5 ± 10.8 ng/mL
same,AUC(0–∞),"[1]; single sc 90 μg, n = 6, mean ± SD",31.7 ± 12.5 ng·h/mL
same,Cmax,"[1]; single sc 90 μg, n = 6, plasma",37.5 ± 11.6 ng/mL
same,AUC(0–∞),"[1]; single sc 120 μg, n = 6, mean ± SD",26.1 ± 16.4 ng·h/mL
same,Cmax,"[1]; single sc 120 μg, n = 6, plasma",57.4 ± 28.7 ng/mL
same,median time to maximum plasma concentration,"[1]; Parts A and B, sc, all doses",5 to 20 min
same,detectability of eneboparatide in the circulation after administration,"[1]; SAD, single sc 10 to 120 μg, LLOQ 50 pg/mL",almost undetectable beyond 2 h after administration
same,Tmax,"[1]; human, plasma, 5 ug, single sc 5 μg, n = 2, median",15 min
same,Tmax,"[1]; human, plasma, 10 ug, single sc 10 μg, n = 4, median",13.2 min
same,Tmax,"[1]; human, plasma, 20 ug, single sc 20 μg, n = 6, median",6 min
same,Tmax,"[1]; human, plasma, 40 ug, single sc 40 μg, n = 3, median",4.8 min
same,Tmax,"[1]; human, plasma, 60 ug, single sc 60 μg, n = 6, median",10.2 min
same,Tmax,"[1]; human, plasma, 90 ug, single sc 90 μg, n = 6, median",19.8 min
same,Tmax,"[1]; human, plasma, 120 ug, single sc 120 μg, n = 6, median",19.8 min
same,half-life,"[1]; human, plasma, normal subjects, sc, read-out: circulating half-life",< 120 min
